Consider 11 molecules from ChEMBL document CHEMBL4270512, “Harnessing pyrrolidine iminosugars into dimeric structures for the rapid discovery of divalent glycosidase inhibitors” (Eur J Med Chem, 2018).

pIC50, pKi: −log10 of the molar value. Activity calls are given as the source filed them. The rule behind the calls is not given here.

In general, pKi refers to −log10 of the Ki, conventionally taken in molar units. Low readings indicate a high Ki, high ones a low Ki. A word on the inhibition: it is the share of the control response that was lost under treatment. A word on the pIC50: it is the IC50 on a negative log10 scale, so that one unit is a factor of ten. High values mean a small IC50, low ones a large IC50.

Assay [1] can be described thus: Uncompetitive inhibition of bovine kidney alpha-fucosidase using p-nitrophenyl glycopyranoside as substrate preincubated for 5 mins followed by substrate addition and measured after 20 mins by Lineweaver-Burk plot analysis. On the set-up: species or system Bos taurus.
The nature of assay [2]: Uncompetitive inhibition of human alpha-fucosidase using p-nitrophenyl glycopyranoside as substrate preincubated for 5 mins followed by substrate addition and measured after 20 mins by Lineweaver-Burk plot analysis.
Assay [3] addresses T1, Beta-galactosidase (Bos taurus) (UniProt Q58D55).
T1 sequence (whole entry): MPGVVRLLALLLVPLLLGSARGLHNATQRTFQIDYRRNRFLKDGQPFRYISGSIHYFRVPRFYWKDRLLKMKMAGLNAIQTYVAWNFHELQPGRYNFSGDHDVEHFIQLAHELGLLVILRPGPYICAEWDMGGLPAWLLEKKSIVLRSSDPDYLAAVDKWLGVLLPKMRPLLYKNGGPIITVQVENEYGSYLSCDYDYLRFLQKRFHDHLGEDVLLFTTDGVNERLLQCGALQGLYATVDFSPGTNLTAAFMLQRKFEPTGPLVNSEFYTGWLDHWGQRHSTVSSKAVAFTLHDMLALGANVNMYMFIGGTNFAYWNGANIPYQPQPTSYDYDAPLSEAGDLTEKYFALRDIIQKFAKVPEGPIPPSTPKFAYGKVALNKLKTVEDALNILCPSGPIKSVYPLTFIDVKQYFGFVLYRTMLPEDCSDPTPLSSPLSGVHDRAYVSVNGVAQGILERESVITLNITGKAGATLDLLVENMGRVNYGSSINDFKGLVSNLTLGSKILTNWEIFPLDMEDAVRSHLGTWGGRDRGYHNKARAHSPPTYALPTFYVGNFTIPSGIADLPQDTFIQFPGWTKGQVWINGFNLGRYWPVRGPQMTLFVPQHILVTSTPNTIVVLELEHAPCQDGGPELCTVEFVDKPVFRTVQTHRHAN
Description: Inhibition of bovine liver beta-galactosidase at 0.1 mM using p-nitrophenyl glycopyranoside as substrate preincubated for 5 mins followed by substrate addition and measured after 20 mins by visible absorption spectroscopic analysis.

Assay [4] can be described thus: Inhibition of human alpha-fucosidase using p-nitrophenyl glycopyranoside as substrate preincubated for 5 mins followed by substrate addition and measured after 20 mins by visible absorption spectroscopic analysis.
Assay [5] can be described thus: Inhibition of bovine kidney alpha-fucosidase using p-nitrophenyl glycopyranoside as substrate preincubated for 5 mins followed by substrate addition and measured after 20 mins by visible absorption spectroscopic analysis. Details: species or system Bos taurus.
A short description of assay [6]: Competitive inhibition of human alpha-fucosidase using p-nitrophenyl glycopyranoside as substrate preincubated for 5 mins followed by substrate addition and measured after 20 mins by Lineweaver-Burk plot analysis.
The nature of assay [7]: Competitive inhibition of bovine kidney alpha-fucosidase using p-nitrophenyl glycopyranoside as substrate preincubated for 5 mins followed by substrate addition and measured after 20 mins by Lineweaver-Burk plot analysis. On the set-up: species or system Bos taurus.
The target in assay [8] is T2, Alpha-mannosidase (Canavalia ensiformis) (UniProt C0HJB3).
T2 sequence (whole entry): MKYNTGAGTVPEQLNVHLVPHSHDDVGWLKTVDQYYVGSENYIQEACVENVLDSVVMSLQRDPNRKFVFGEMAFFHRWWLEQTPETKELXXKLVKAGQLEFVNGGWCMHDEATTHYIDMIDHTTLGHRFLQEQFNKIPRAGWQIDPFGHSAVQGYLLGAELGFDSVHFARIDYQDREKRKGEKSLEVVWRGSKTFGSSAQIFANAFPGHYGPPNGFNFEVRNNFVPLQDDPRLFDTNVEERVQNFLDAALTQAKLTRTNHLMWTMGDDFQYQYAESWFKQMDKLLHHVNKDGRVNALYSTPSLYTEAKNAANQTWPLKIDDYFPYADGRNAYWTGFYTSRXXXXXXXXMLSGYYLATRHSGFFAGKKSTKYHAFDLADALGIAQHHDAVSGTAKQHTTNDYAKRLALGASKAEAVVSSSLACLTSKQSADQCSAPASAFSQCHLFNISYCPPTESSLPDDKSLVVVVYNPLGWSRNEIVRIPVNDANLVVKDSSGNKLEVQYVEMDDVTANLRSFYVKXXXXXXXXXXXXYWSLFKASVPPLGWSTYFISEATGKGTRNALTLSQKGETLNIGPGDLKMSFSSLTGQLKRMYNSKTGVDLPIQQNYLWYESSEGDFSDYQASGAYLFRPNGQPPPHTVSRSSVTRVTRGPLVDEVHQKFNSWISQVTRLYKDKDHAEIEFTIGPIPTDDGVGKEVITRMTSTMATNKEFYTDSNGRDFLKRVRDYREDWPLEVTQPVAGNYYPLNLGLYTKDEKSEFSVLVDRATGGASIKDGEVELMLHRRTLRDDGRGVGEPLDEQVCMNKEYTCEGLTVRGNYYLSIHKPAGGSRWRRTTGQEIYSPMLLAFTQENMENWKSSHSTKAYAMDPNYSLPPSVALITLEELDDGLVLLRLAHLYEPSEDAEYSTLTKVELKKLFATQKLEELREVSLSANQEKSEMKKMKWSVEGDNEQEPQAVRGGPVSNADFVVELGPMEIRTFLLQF
Put plainly: Inhibition of jack beans alpha-mannosidase at 0.1 mM using p-nitrophenyl glycopyranoside as substrate preincubated for 5 mins followed by substrate addition and measured after 20 mins by visible absorption spectroscopic analysis.

A further assay relates to Canavalia ensiformis. Description: Inhibition of jack beans beta-N-acetylglucosaminidase at 0.1 mM using p-nitrophenyl glycopyranoside as substrate preincubated for 5 mins followed by substrate addition and measured after 20 mins by visible absorption spectroscopic analysis.
Assay [9] addresses Alpha-galactosidase (Coffea arabica) (UniProt Q42656). Put plainly: Inhibition of coffee beans alpha-galactosidase at 0.1 mM using p-nitrophenyl glycopyranoside as substrate preincubated for 5 mins followed by substrate addition and measured after 20 mins by visible absorption spectroscopic analysis.
For the next assay, the system named is Aspergillus niger. Put plainly: Inhibition of Aspergillus niger amyloglucosidase at 0.1 mM using p-nitrophenyl glycopyranoside as substrate preincubated for 5 mins followed by substrate addition and measured after 20 mins by visible absorption spectroscopic analysis.
Another assay concerns Saccharomyces cerevisiae. Put plainly: Inhibition of Saccharomyces cerevisiae alpha-glucosidase at 0.1 mM using p-nitrophenyl glycopyranoside as substrate preincubated for 5 mins followed by substrate addition and measured after 20 mins by visible absorption spectroscopic analysis.
Another assay relates to Prunus dulcis. Description: Inhibition of almond beta-glucosidase at 0.1 mM using p-nitrophenyl glycopyranoside as substrate preincubated for 5 mins followed by substrate addition and measured after 20 mins by visible absorption spectroscopic analysis.
The next assay has as its system Oryza sativa. Put plainly: Inhibition of rice beta-glucosidase at 0.1 mM using p-nitrophenyl glycopyranoside as substrate preincubated for 5 mins followed by substrate addition and measured after 20 mins by visible absorption spectroscopic analysis.
The next assay has as its system Cornu aspersum. Put plainly: Inhibition of snail beta-mannosidase at 0.1 mM using p-nitrophenyl glycopyranoside as substrate preincubated for 5 mins followed by substrate addition and measured after 20 mins by visible absorption spectroscopic analysis.
In assay [10] the target is T1, Beta-galactosidase (Bos taurus). Description: Inhibition of bovine liver beta-galactosidase at 200 uM using p-nitrophenyl glycopyranoside as substrate preincubated for 5 mins followed by substrate addition and measured after 20 mins by visible absorption spectroscopic analysis relative to control.
The species entered for another assay is Bos taurus. Put plainly: Inhibition of bovine kidney alpha-fucosidase at 0.120 uM using p-nitrophenyl glycopyranoside as substrate preincubated for 5 mins followed by substrate addition and measured after 20 mins by visible absorption spectroscopic analysis.

Chain of Alpha-galactosidase (Coffea arabica) (Q42656 16-378 limits assumed): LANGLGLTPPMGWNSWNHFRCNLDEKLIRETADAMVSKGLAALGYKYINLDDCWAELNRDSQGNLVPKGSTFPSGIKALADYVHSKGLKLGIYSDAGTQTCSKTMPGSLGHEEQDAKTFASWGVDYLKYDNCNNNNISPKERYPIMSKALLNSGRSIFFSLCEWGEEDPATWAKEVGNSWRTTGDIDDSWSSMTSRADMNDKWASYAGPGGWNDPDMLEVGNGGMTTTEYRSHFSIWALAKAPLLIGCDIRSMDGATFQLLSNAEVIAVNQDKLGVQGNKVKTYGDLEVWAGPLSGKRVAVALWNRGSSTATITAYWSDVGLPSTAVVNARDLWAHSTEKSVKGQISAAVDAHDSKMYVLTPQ

For `C[C@@H]1N[C@@H](c2cn(-c3ccccc3)nn2)[C@H](O)[C@@H]1O`, the pKi in assay [1] is 7.18; in assay [2], 5.26; in assay [6], 6.07; in assay [7] it was 8.17. In addition, the inhibition entry (in assay [3]; in assay [8]; with Canavalia ensiformis; in assay [9]; in the assay with Aspergillus niger; with Saccharomyces cerevisiae) was “inactive” in each case. Also, the inhibition result in the assay on Prunus dulcis, with Oryza sativa and in the assay with Cornu aspersum was “inactive” each time. The negative-log IC50 (pIC50) was 5.38 in [4] and 7.72 in assay [5].

In assay [10], `Cc1oc([C@H]2NC[C@@H](O)[C@H]2O)cc1C(=O)NCc1cn(CCOCCOCCOCCOCCOCCn2cc(CNC(=O)c3cc([C@H]4NC[C@@H](O)[C@H]4O)oc3C)nn2)nn1` came in with an inhibition below 50%.

In the case of `C[C@@H]1N[C@@H](c2cn(-c3ccc(S(=O)(=O)c4ccc(N=[N+]=[N-])cc4)cc3)nn2)[C@H](O)[C@@H]1O`, the pKi in assay [1] was 9.00; in assay [2], 6.24; in assay [6], 7.14; in [7], 9.70. In addition, the inhibition entry (in [3]; in assay [8]; with Canavalia ensiformis; in [9]; in the assay on Aspergillus niger; in the assay on Saccharomyces cerevisiae) was “inactive” throughout. Besides, the inhibition entry in the assay on Prunus dulcis, with Oryza sativa and with Cornu aspersum was “inactive” in each case. In addition, the pIC50 in assay [4] was 6.27; in assay [5], 8.96.

As for `C[C@@H]1N[C@@H](c2cn(CCOCCOCCOCCn3cc([C@@H]4N[C@@H](C)[C@@H](O)[C@H]4O)nn3)nn2)[C@H](O)[C@@H]1O`, the pKi in assay [1] was 6.88; in assay [2], 4.95; in assay [6], 5.32; in [7], 7.37. Moreover, the inhibition result (in assay [3]; in [8]; in the assay with Canavalia ensiformis; in assay [9]; in the assay with Aspergillus niger; with Saccharomyces cerevisiae) was “inactive” each time. In addition, the inhibition result in the assay with Prunus dulcis, with Oryza sativa and in the assay with Cornu aspersum was “inactive” in each case. Also, the pIC50 in assay [4] was 4.59; in [5], 6.92.

As to `C#C[C@H]1[C@H](O)[C@H](O)[C@H](C)N1C(=O)OC(C)(C)C`, the pKi in assay [1] was 9.00; in assay [7] it was 9.70.

Consider `C[C@@H]1N[C@@H](c2cn(CCCCCCn3cc([C@@H]4N[C@@H](C)[C@@H](O)[C@H]4O)nn3)nn2)[C@H](O)[C@@H]1O`, for which the pKi in assay [1] is 6.62; in assay [2], 5.15; in assay [6], 5.60; in assay [7], 7.82. Besides, the inhibition entry (in assay [3]; in assay [8]; in the assay on Canavalia ensiformis; in assay [9]; in the assay with Aspergillus niger; with Saccharomyces cerevisiae) was “inactive” in each case. In addition, the inhibition entry in the assay on Prunus dulcis, with Oryza sativa and with Cornu aspersum was “inactive” throughout. The pIC50 is 5.17 in [4] and 7.33 in assay [5].

For `C[C@@H]1N[C@@H](c2cn(CCOCCOCc3cn(CCCCCCCCCCCCn4cc(COCCOCCn5cc([C@@H]6N[C@@H](C)[C@@H](O)[C@H]6O)nn5)nn4)nn3)nn2)[C@H](O)[C@@H]1O`, in the assay filed under Bos taurus, the inhibition entry was “Active”.

`Cc1oc([C@H]2NC[C@@H](O)[C@H]2O)cc1C(=O)NCc1cn(CCOCCOCCOCCn2cc(CNC(=O)c3cc([C@H]4NC[C@@H](O)[C@H]4O)oc3C)nn2)nn1` gave an inhibition in assay [10] below 50%.

As for `C[C@@H]1N[C@@H](c2cn(CCCCCCCCCCCCn3cc([C@@H]4N[C@@H](C)[C@@H](O)[C@H]4O)nn3)nn2)[C@H](O)[C@@H]1O`, in the assay filed under Bos taurus, the inhibition result is “Active”.

Regarding `C[C@@H]1N[C@@H](c2cn(CCOCCOCc3cn(-c4cccc(S(=O)(=O)c5cccc(-n6cc(COCCOCCn7cc([C@@H]8N[C@@H](C)[C@@H](O)[C@H]8O)nn7)nn6)c5)c4)nn3)nn2)[C@H](O)[C@@H]1O`, in the assay listed under Bos taurus, the inhibition result was “Active”.

For the molecule `C[C@@H]1N[C@@H](c2c[nH]nn2)[C@H](O)[C@@H]1O`, the pKi in assay [1] was 5.38; in [2] it was 4.47; in [6] it was 4.74; in [7] it was 6.52. Further, the inhibition entry (in assay [3]; in assay [8]; in the assay with Canavalia ensiformis; in assay [9]; in the assay with Aspergillus niger; in the assay with Saccharomyces cerevisiae) was “inactive” each time. In addition, the inhibition result in the assay on Prunus dulcis, in the assay on Oryza sativa and with Cornu aspersum was “inactive” throughout. In addition, the pIC50 was 4.15 in assay [4] and 6.00 in [5].
